Laboratory results published in patent US20240376068A1, “SIGMA LIGAND COMPOUNDS AND USES THEREOF” (Minerva Neurosciences, Inc., priority 2020, published 2024).
pIC50, pKi: −log10 of the molar value. Read-outs that look alike come from different tables or passages of the source.

Tests used:
α1a (h) [1] = biological target: T1, α1a (h) (Homo sapiens (Human), UniProt P35348); test: α1A adrenergic agonist effect assay; format: cell-based; conditions: for pIC50: agonist effect, CHO cells; for activation at 1 µM: α1A(h) agonist effect, read-out: % stimulation relative to control (1 μM)
Experimental: Assays for determining the agonist effect on α1A (h) were performed according to the procedure described in Example 21, and the results are represented in Table D below.

α1b (h) [2] = biological target: T2, α1b (h) (Homo sapiens (Human), UniProt P35368); test: α1B adrenergic agonist effect assay; format: cell-based; conditions: CHO cells
α1b (h) [3] = biological target: T2, α1b (h); test: α1B adrenergic antagonist effect assay; format: cell-based; conditions: CHO cells
α1d (h) [4] = biological target: T3, α1d (h) (Homo sapiens (Human), UniProt P25100); test: α1D adrenergic antagonist effect assay; format: cell-based; conditions: CHO cells
α1a (h) [5] = biological target: T1, α1a (h); test: α1A adrenergic antagonist effect assay; format: cell-based; conditions: for pIC50: antagonist effect, CHO cells; for inhibition at 1 µM: α1A(h) antagonist effect, read-out: % inhibition of control values (1 μM)
Experimental: Assays for determining the antagonist effect on α1A (h) were performed according to the procedure described in Example 21, and the results are represented in Table E below. […] No antagonist effect is observed for the other compounds.

Sigma 2 (h) = Sigma 2 (h) (Homo sapiens (Human), UniProt Q5BJF2); test: Sigma-2 binding assay
Experimental: (§1) Assays for determining Sigma-1 and Sigma-2 binding values were performed according to Ganapathy, M. E. et al. (1999), J. Pharmacol. Exp. Ther., 289:251-260.

sigma 1 (h) = sigma 1 (h) (Homo sapiens (Human), UniProt Q99720); test: Sigma-1 binding assay
Experimental: as §1

hERG = hERG (Homo sapiens (Human), UniProt Q12809); test: hERG inhibition assay
5-HT2A (h) = 5-HT2A (h) (Homo sapiens (Human), UniProt P28223); test: 5-HT2A binding assay; conditions: antagonist radioligand, HEK-293 cells
Experimental: Assays for determining 5-HT2A binding values were performed according to: Bonhaus, D. W. et al. (1995), Brit. J. Pharmacol., 115:622-628; Schwinn, D. A. et al. (1995), J. Pharmacol. Exp. Ther., 272:134-142; and Vicentic, A. et al. (2002), J. Pharmacol. Exp. Ther., 302:58-65; Bylund D B et al. (1994), Pharmacol. Rev. 46:121-136. Each of which is incorporated by reference in its entirety.

α1d (h) [6] = biological target: T3, α1d (h); test: α1D adrenergic agonist effect assay; format: cell-based; conditions: CHO cells
dopamine D2S receptor = dopamine D2S receptor (Homo sapiens (Human), UniProt P14416); test: Dopamine D2S receptor binding assay (Eurofins Cerep item 1322); conditions: [3H]7-OH-DPAT, read-out: % inhibition of control specific binding (1 μM)
Experimental: Assays for determining dopamine D2S receptor binding values were performed according to Eurofins Cerep protocol item 1322 and the results are represented in Table C below. The parameters used for the assay are described below. […] Common antipsychotics, in contrast, block dopamine receptors (Keefe, et al., J Clin Psychiatry. 2018; 79 (3): 17m11753).

5HT2A = 5HT2A (Homo sapiens (Human), UniProt P28223); test: 5HT2A agonist effect assay; format: cell-based; conditions: for activation at 0.1 µM: 100 nM, read-out: % stimulation relative to control (100 nM); for activation at 1 µM: read-out: % stimulation relative to control (1 μM)
Experimental: Assays for determining the agonist effect on 5HT2A were performed according to the procedure described in Example 21, and the results are represented in Table F below. The compounds in Table F have no agonist effect on 5HT2A at 1 μM and 100 nM.

Vero-E6 cell line = test: Toxicity evaluation on Vero-E6 cell line; format: cell-based; conditions: Vero E6, 50 μM to 0.37 μM, 72 h post treatment
Experimental: Day 1: Cell were seeded in 96 wells plate, Vero E6, P40, 10000 cells/well. Growth conditions included medium DMEM high glucose.
Day 2: Compounds were diluted in a mix of 50% DMSO and 50% growth medium to. 10 mM concentration was used for PB28 (10 mg vial from Tocris, 1-Cyclohexyl-4-(3-(5-methoxy-1,2,3,4-tetrahydronaphthalen-1-yl)-n-propyl)piperazine dihydrochloride, see Gordon et al. Nature 2020, 583, […]). Other compounds were prepared at 2 mM concentration stock solution. Cells were treated from 50 μM to 0.37 μM by serial dilution two-fold dilution in triplicate. Controls were designed to include the same concentration of DMSO for each tested products.
Day 5: For a 72 h post treatment, cells were fixed with formalin and stained with Hoetsch33342. Cells were imaged using a Cell Insight CX7 high content screening microscope. Number of cells and nuclear parameters were assessed using an internal cytotoxicity testing protocol.

[7] = [3H]DTG (+1 μM (+)pentazocine), Jurkat cells, read-out: Sigma-2 Ki
[8] = [3H](+)pentazocine, Jurkat cells, read-out: Sigma-1 Ki

T1 sequence (P35348 whole entry): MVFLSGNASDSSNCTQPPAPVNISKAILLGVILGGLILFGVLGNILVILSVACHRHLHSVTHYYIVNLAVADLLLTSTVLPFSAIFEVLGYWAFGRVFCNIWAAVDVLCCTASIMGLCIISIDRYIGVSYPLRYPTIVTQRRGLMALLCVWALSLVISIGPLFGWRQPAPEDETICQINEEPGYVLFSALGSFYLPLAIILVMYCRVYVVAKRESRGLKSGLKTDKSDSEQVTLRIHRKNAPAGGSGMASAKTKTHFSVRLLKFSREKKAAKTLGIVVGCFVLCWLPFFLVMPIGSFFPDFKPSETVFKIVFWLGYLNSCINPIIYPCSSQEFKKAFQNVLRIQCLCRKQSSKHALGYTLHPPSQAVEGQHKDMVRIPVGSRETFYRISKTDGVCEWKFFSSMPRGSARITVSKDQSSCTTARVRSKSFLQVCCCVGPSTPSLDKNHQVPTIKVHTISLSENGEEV
T3 sequence (P25100 whole entry): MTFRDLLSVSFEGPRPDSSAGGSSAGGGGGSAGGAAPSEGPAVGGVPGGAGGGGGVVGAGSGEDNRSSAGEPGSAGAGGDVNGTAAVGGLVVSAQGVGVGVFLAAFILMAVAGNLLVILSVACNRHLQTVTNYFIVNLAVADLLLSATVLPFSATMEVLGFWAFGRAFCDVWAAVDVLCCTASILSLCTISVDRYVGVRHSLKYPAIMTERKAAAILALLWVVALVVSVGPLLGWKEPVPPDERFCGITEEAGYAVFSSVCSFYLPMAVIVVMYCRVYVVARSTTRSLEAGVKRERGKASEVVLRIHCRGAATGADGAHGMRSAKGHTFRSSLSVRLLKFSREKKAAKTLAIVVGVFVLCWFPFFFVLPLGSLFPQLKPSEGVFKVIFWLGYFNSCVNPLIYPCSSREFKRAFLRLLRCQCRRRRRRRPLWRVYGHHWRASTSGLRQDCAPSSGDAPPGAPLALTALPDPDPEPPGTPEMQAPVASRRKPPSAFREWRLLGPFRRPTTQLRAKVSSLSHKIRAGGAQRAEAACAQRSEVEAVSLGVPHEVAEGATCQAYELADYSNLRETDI
Sequence of hERG (Q12809 whole entry): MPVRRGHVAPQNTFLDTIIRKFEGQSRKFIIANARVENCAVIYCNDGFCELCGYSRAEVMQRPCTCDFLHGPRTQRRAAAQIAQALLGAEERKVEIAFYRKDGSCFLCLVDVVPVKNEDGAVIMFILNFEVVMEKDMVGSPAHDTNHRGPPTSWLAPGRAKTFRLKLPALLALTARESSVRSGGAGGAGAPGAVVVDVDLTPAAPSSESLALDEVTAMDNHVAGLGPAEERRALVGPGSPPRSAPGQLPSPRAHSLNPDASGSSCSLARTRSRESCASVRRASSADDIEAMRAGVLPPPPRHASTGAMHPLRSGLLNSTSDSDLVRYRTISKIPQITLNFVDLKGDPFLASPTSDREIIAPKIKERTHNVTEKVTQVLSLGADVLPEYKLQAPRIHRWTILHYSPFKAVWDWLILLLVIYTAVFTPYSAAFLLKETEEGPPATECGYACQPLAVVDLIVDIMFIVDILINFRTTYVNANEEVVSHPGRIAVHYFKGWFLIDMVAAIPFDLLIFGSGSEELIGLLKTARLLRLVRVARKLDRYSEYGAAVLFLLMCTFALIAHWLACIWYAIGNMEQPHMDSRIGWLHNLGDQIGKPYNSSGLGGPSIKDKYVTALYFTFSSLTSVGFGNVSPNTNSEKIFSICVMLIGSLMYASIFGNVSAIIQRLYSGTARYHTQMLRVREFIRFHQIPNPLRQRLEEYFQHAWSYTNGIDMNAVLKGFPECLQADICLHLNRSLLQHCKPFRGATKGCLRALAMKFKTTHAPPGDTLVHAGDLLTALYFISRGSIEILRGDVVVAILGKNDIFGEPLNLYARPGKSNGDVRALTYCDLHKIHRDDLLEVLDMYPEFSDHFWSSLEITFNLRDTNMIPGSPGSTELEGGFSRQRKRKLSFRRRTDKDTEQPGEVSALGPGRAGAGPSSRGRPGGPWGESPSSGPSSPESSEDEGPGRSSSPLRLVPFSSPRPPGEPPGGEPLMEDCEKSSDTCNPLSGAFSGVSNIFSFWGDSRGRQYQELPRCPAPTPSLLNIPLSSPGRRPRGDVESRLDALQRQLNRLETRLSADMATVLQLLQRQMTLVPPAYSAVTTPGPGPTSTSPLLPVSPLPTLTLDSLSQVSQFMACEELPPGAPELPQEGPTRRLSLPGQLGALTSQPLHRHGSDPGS
T2 sequence (P35368 whole entry): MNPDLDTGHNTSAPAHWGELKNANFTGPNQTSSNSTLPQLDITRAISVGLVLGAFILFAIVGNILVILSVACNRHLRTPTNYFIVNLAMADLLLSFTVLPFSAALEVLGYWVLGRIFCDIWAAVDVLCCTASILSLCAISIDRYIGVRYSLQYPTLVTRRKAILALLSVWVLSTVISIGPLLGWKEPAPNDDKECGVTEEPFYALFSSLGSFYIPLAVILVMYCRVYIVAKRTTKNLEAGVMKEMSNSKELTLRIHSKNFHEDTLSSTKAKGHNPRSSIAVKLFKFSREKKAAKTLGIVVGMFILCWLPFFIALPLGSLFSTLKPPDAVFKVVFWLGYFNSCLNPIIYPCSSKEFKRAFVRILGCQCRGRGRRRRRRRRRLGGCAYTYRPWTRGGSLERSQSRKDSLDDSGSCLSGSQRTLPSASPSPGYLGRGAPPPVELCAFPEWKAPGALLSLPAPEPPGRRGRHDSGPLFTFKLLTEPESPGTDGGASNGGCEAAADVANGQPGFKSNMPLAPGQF
Sequence of Sigma 2 (h) (Q5BJF2 whole entry): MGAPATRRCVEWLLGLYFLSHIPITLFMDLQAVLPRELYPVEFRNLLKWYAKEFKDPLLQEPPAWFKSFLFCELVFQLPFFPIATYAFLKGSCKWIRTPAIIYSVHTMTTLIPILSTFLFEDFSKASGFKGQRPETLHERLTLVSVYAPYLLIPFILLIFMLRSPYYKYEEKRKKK
Sequence of sigma 1 (h) (Q99720 whole entry): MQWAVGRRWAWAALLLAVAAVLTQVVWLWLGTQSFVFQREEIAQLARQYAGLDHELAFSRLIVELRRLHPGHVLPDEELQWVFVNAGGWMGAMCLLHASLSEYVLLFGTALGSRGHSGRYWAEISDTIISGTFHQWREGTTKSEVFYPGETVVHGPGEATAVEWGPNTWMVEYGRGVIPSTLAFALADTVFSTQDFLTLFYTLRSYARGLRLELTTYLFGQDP
Sequence of dopamine D2S receptor (P14416 other isoform, or with tags, fused parts or gaps): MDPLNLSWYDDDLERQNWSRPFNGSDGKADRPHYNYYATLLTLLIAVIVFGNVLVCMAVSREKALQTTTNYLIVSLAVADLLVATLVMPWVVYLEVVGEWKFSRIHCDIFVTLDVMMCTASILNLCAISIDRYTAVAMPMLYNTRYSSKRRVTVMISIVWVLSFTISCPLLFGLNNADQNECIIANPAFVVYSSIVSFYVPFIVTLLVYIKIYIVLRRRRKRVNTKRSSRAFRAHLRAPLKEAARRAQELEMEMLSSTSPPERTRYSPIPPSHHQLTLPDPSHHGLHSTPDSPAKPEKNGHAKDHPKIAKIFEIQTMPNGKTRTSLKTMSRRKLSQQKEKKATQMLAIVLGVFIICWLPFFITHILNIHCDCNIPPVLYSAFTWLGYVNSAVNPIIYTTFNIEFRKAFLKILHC
Sequence of 5-HT2A (h) (P28223 whole entry): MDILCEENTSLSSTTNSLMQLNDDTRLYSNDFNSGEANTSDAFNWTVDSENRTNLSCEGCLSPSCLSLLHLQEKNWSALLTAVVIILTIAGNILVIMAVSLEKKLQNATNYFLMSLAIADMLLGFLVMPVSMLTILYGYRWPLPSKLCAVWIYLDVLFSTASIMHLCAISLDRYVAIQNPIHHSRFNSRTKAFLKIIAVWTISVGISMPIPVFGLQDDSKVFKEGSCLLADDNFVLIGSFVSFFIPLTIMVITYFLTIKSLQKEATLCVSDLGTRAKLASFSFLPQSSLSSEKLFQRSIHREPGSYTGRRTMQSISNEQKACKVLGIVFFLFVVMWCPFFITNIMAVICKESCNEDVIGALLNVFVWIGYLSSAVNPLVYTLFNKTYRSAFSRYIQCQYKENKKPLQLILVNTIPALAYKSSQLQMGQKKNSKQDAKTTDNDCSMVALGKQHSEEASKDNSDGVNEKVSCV

Compound	pIC50 (α1a (h) [1])	pIC50 (α1b (h) [2])	pIC50 (α1b (h) [3])	pIC50 (α1d (h) [4])	pIC50 (α1a (h) [5])	pKi (Sigma 2 (h))	pKi (sigma 1 (h))	pIC50 (hERG)	pIC50 (5-HT2A (h))	pIC50 (α1d (h) [6])	activation at 1 µM (α1a (h) [1])	inhibition at 1 µM (dopamine D2S receptor)	inhibition at 1 µM (α1a (h) [5])	pKi (Sigma 2 (h); [7])	pKi (sigma 1 (h); [8])	activation at 0.1 µM (5HT2A)	activation at 1 µM (5HT2A)	cytotoxicity (cell number) (Vero-E6 cell line)
CC1(C)CCN(C2CCCC2)Cc2cc(-c3ccc(C(F)(F)F)cc3)ccc21 [Compound 10, 2-cyclopentyl-5,5-dimethyl-8-(4-(trifluoromethyl)phenyl)-2,3,4,5-tetrahydro-1H-benzo[c]azepine]	< 6.00	< 6.00	< 6.00	< 6.00	< 6.00	7.30 to 8.30	< 6.30	< 5.52	< 6.00	< 6.00	–	–	–	–	–	–	–	–
CC(C)OC(=O)N1Cc2cc(N3CCN(C4CCCC4)CC3)ccc2C(C)(C)C1 [Compound 45, isopropyl 7-(4-cyclopentylpiperazin-1-yl)-4,4-dimethyl-3,4-dihydroisoquinoline-2(1H)-carboxylate]	–	–	–	–	–	–	–	< 5.52	–	–	0%	-5%	19%	7.30 to 8.30	8.30 to 10.00	-4%	-1%	–
CC1(C)CCN(S(=O)(=O)c2cccc(Cl)c2)Cc2cc(N3CCC(N4CCOCC4)CC3)ccc21 [Compound 80, 4-(1-(2-((3-chlorophenyl)sulfonyl)-5,5-dimethyl-2,3,4,5-tetrahydro-1H-benzo[c]azepin-8-yl)piperidin-4-yl)morpholine]	–	–	–	–	–	–	–	< 5.52	–	–	0%	4%	15%	7.00 to 7.30	8.30 to 10.00	0%	1%	–
CCCN1CCN(c2ccc3c(c2)CN(C(=O)OCc2ccccc2)CC3(C)C)CC1 [Compound 2, benzyl 4,4-dimethyl-7-(4-propylpiperazin-1-yl)-3,4-dihydroisoquinoline-2(1H)-carboxylate]	< 6.00	< 6.00	< 6.00	< 6.00	< 6.00	–	–	< 5.52	< 6.00	< 6.00	–	–	–	7.30 to 8.30	7.30 to 8.30	–	–	not cytotoxic
